Source: article PMC6353901, “Systematic characterization of position one variants within the lantibiotic nisin” (Scientific Reports, 2019)
Ends that are not written are not given here.

Experiments:
[1] = pre-lantibiotic in contrast to nisin; cited from earlier work
Procedure: As an advantage any lantibiotic can be produced as a pre-lantibiotic. […] Normally, we observed yields for the pre-nisin and its variants of 3–6 mg per liter cell culture supernatant after purificatio ...

NisP = assay: Leader peptide cleavage of pre-nisin variants by NisP (RP-HPLC); format: biochemical, Lactococcus lactis; conditions: in vitro cleavage of the leader peptide from purified pre-nisin (variant) by purified secreted NisP, overnight at 8 °C, integration of leader peptide peaks
From the text: Step IV concerns leader peptide cleavage and thereby activation of the purified pre-nisin variants. Here, we used the secreted variant of the natural leader peptidase NisP, by which the leader peptide is cleaved in vitro and the cleavage efficiency (%) can be calculated as recently shown. We used an RP-HPLC set-up to monitor product formation, in which the appearance of the leader peptide in the chromatograms was used to determine the concentration of activated nisin (Supplementary Fig. S3). […] The nisin core peptide eluted at a later retention time of approximately 23 min (Supplementary Fig. S3). […] However, in the case of the I1 mutants I1A, I1G, I1T, I1S, I1K, I1R, I1H, I1Q, I1E, I1N and I1D) the formation of a core peptide peak in terms of a new and separated peak in the chromatogram was not observed (Supplementary Fig. S4). Rather, the peaks with a retention time between 18–21 min contained both species, the cleaved and non-cleaved lantibiotic, and can therefore not be deconvoluted for proper determination of the amount of activated nisin. […] The concentration was calculated based on a standard calibration curve (Supplementary Fig. S5), where we precisely determined the concentration of the activated nisin or I1 mutants. We used this concentration determination instead of the colorimetric protein concentration determination as for example Bradford or the BCA-assay since the latter two assays cannot differentiate between the activated and non-activated form of the secreted variants. Since nisin is not active unless the leader is cleaved off, the determination of the area of the leader peak to calculate the amount of the activated lantibiotic directly relates to the antimicrobial activity without need to further purify the peptide after cleavage.
All I1 mutations were subjected to NisP cleavage and most of the variants were cleaved, but a strong influence of the nature of the I1 substitutions with respect to cleavage efficiency was observed (Supplementary Fig. S6). The cleavage efficiency for wild type pre-nisin A was 94.3 ± 1.7% but lower for the mutants I1M, I1L, I1A and I1V (72.3 ± 1.4%, 72.4 ± 1.3%, 81.0 ± 1.8% and 58.1± 2.8%, respectively). […] This holds especially in those cases, where the amino acid at position one was exchanged to a charged amino acid (e.g. I1K 9.2 ± 1.3%; I1E 9.5 ± 0.7%) or contained a bulky hydrophobic side chain (e.g. I1F 12.9 ± 0.8%; I1W 5.7 ± 0.2%; I1Y 22.6 ± 2.3%) (Supplementary Fig. S6). […] Even after an extensive prolongation of the incubation time, no leader peptide peak was detected in the RP-HPLC chromatogram (Supplementary Fig. S4). It is important to stress in this context that the cleavage efficiencies cannot be determined from Tricine-SDS gels (20%). Here, the leader peptide as well as the core peptide would co-migrate, which obviously will falsify the staining results.
Pre-nisin and its variants were expressed and purified as previously described[41],[49],[69]. The purity of pre-nisin and its variants was controlled by Tricine-SDS-PAGE (20%)[70]. The activation of all variants was performed by NisP cleavage overnight at 8 °C. Pre-nisin cleavage and its variants was monitored by RP-HPLC[49],[69].
Pre-nisin and the activated nisin variants were analysed by RP-HPLC (Agilent Technologies 1260 Infinity II) with a LiChrospher WP 300 RP-18 end-capped column and an acetonitrile/water solvent system. The cleavage efficiency and the concentration of active lantibiotic was calculated as described previously[49],[69].

Compound	pH stability [1]	cleavage efficiency by NisP (NisP) [%]
wild type pre-nisin A: leader-containing, fully modified precursor of nisin A, not yet activated by NisP (MSTKDFNLDLVSVSKKDSGASPRITSISLCTPGCKTGALMGCNMKTATCHCSIHVSK; thioether (positions not given here); not fully specified (some residues, bridges); also: fully post-translationally modified, places not given here; UniProt P13068 1-57, looked up) [reference compound]	higher pH stability	94.3 ± 1.7
C=C(NC(=O)[C@@H](NC(=O)[C@H](Cc1c[nH]cn1)NC(=O)[C@@H](NC(=O)[C@H](CO)NC(=O)[C@@H]1CS[C@@H](C)[C@H]2NC(=O)[C@H](C)NC(=O)[C@H](NC(=O)[C@H](CCCCN)NC(=O)[C@H](CCSC)NC(=O)[C@H](CC(N)=O)NC(=O)[C@@H]3CS[C@@H](C)[C@@H](NC(=O)[C@H](CCCCN)NC(=O)[C@@H]4CS[C@@H](C)[C@@H](NC(=O)[C@@H]5CSC[C@@H](NC(=O)/C(=C/C)NC(=O)[C@@H](N)Cc6c[nH]c7ccccc67)C(=O)N[C@@H]([C@@H](C)CC)C(=O)NC(=C)C(=O)N[C@@H](CC(C)C)C(=O)N5)C(=O)N5CCC[C@H]5C(=O)NCC(=O)N4)C(=O)NCC(=O)N[C@@H](C)C(=O)N[C@@H](CC(C)C)C(=O)N[C@@H](CCSC)C(=O)NCC(=O)N3)[C@H](C)SC[C@H](NC2=O)C(=O)N[C@@H](Cc2c[nH]cn2)C(=O)N1)[C@@H](C)CC)C(C)C)C(=O)N[C@@H](CCCCN)C(=O)O [I1W]	–	5.7 ± 0.2
